Results on one molecule are retold here after ChEMBL document CHEMBL1156052, “Discovery of 1-[4-(3-chlorophenylamino)-1-methyl-1H-pyrrolo[3,2-c]pyridin-7-yl]-1-morpholin-4-ylmethanone (GSK554418A), a brain penetrant 5-azaindole CB2 agonist for the treatment of chronic pain” (J Med Chem, 2009).

Bounds are passed on as bounds.

The target of series [1] is T1, Cannabinoid receptor 1 (Homo sapiens, UniProt P21554). The experiment in a line: Agonist activity at human recombinant cannabinoid CB1 receptor expressed in MMY23 Saccharomyces cerevisiae assessed as degradation of FDGlu to fluorescein after 24 hrs by spectrofluorimetry. The format is functional.
T1 sequence (P21554 whole entry): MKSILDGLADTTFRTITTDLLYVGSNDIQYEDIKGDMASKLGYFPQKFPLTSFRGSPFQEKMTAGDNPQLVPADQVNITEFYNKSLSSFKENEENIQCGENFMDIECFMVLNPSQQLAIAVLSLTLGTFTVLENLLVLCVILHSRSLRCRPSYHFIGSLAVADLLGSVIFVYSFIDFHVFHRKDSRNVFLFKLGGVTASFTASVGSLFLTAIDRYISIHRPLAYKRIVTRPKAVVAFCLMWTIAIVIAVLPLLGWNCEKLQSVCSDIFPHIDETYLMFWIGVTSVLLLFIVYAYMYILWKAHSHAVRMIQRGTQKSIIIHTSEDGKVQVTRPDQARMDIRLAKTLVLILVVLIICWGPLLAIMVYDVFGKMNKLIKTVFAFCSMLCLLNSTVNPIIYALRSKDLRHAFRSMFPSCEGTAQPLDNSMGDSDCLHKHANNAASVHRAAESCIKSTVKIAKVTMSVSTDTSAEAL
The target of series [2] is Adenosine receptor A1 (Homo sapiens) (UniProt P30542). Description: Binding affinity to human adenosine A1 receptor at 1 uM.
Sequence of Adenosine receptor A1 (Homo sapiens) (P30542 whole entry): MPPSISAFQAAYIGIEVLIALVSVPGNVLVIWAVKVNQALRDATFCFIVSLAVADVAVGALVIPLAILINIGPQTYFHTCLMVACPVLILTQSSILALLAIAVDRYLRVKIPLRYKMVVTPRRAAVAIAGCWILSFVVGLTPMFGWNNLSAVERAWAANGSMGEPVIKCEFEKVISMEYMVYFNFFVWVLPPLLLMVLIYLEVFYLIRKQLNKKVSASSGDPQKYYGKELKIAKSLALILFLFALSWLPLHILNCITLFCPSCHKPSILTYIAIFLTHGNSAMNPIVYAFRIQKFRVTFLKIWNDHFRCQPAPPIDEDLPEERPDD
Series [3] addresses Melatonin receptor type 1A (Homo sapiens) (UniProt P48039). Description: Binding affinity to human ML1 receptor at 1 uM.
In series [4] the test system is Rattus norvegicus. Description: Induction of hypothermia in rat at 130 mg/kg, po after 1 to 5 hrs. Format: organism-based. More on the design: dose 130 mg/kg, route oral. Conditions: in vivo.
Series [5] addresses Muscarinic acetylcholine receptor M4 (Homo sapiens) (UniProt P08173). Description: Binding affinity to human muscarinic M4 receptor at 1 uM.
Series [6] addresses T2, Cannabinoid receptor 2 (Homo sapiens, UniProt P34972). Description: Agonist activity at human recombinant cannabinoid CB2 receptor expressed in CHOK1 cells assessed as forskolin-induced cAMP production at 20 uM by luciferase assay relative to HU210. The format is functional, cell-based. Conditions: CHO-K1. (In general: Cyclic AMP is a second messenger, typically raised through Gs and lowered through Gi signalling.)

The species entered for series [7] is Homo sapiens. Description: Selectivity ratio of EC50 for human recombinant cannabinoid CB1 receptor to EC50 for human recombinant cannabinoid CB2 receptor.
Series [8] has as its target Cytochrome P450 2C19 (Homo sapiens, UniProt P33261). Description: Inhibition of CYP2C19. The format is ADME.
Series [9] concerns the target Muscarinic acetylcholine receptor M2 (Homo sapiens) (UniProt P08172). Description: Binding affinity to human muscarinic M2 receptor at 1 uM.
A short description of series [10]: Ratio of drug level in brain to blood in rat 130 mg/kg, po after 1 hr. The format is ADME, organism-based. Details: dose 130 mg/kg, route oral.
Series [11] in a line: Ratio of drug level in brain to blood in rat 130 mg/kg, po after 5 hrs. Format: ADME, organism-based. More on the design: dose 130 mg/kg, route oral.
The target of series [12] is T2, Cannabinoid receptor 2. The experiment in a line: Agonist activity at human recombinant cannabinoid CB2 receptor expressed in MMY23 Saccharomyces cerevisiae assessed as degradation of FDGlu to fluorescein after 24 hrs by spectrofluorimetry. Format: functional.
Series [13] concerns the target Histamine H1 receptor (Homo sapiens) (UniProt P35367). The experiment in a line: Binding affinity to human histamine H1 receptor at 1 uM.
A short description of series [14]: Oral bioavailability in Sprague-Dawley rat at 2 mg/kg after 0.8 hrs. Format: ADME, organism-based. Conditions: in vivo.
The nature of series [15]: Binding affinity to GABA receptor at 1 uM.
Series [16] is described as follows: Dissociation constant, pKa of the compound. The format is physicochemical.
Series [17] addresses T1, Cannabinoid receptor 1. Description: Agonist activity at human recombinant cannabinoid CB1 receptor expressed in MMY23 Saccharomyces cerevisiae assessed as degradation of FDGlu to fluorescein after 24 hrs by spectrofluorimetry relative to HU210. The format is functional.

T2 sequence (P34972 whole entry): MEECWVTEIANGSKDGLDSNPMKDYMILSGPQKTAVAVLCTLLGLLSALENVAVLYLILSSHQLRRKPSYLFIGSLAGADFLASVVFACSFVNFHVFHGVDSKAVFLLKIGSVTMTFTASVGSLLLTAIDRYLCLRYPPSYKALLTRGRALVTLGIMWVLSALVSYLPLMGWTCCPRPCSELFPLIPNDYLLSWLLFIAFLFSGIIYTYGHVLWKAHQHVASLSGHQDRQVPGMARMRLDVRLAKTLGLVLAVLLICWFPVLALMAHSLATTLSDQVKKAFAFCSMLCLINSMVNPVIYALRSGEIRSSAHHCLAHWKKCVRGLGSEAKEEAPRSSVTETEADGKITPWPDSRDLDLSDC
Sequence of Histamine H1 receptor (Homo sapiens) (P35367 whole entry): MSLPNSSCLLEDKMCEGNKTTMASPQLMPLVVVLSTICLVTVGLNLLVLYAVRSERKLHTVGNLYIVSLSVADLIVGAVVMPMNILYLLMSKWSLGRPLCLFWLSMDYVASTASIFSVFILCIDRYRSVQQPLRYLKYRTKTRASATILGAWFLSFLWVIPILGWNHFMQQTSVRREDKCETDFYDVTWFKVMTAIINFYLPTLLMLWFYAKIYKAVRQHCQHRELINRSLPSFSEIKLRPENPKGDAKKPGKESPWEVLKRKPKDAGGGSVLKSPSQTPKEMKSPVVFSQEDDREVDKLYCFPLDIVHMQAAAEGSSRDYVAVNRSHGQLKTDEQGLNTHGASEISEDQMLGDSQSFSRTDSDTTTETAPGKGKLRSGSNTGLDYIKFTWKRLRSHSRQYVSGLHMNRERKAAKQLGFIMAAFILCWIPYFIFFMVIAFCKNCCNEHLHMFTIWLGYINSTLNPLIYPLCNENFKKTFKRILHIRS
Sequence of Muscarinic acetylcholine receptor M2 (Homo sapiens) (P08172 whole entry): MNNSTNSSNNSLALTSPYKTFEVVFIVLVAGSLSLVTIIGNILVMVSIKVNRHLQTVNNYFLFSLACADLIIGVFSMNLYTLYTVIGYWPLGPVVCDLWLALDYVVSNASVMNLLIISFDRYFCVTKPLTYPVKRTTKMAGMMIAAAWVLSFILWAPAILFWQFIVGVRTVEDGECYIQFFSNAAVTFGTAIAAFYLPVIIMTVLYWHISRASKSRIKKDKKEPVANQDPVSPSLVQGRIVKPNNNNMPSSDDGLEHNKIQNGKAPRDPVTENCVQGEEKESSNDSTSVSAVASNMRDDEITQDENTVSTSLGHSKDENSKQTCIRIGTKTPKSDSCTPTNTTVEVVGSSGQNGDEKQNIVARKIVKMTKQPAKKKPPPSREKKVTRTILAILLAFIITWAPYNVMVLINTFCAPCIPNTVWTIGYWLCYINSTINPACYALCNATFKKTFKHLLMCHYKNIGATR
Sequence of Melatonin receptor type 1A (Homo sapiens) (P48039 whole entry): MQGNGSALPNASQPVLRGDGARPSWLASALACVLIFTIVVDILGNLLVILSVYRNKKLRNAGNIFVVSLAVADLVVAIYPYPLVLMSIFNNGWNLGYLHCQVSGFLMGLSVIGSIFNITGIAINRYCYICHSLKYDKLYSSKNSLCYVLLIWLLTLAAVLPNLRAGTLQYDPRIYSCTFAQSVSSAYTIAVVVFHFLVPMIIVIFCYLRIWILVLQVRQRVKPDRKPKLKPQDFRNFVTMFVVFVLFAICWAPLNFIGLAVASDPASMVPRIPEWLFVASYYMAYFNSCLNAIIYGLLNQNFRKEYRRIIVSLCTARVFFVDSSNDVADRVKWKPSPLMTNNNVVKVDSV
Sequence of Cytochrome P450 2C19 (P33261 whole entry): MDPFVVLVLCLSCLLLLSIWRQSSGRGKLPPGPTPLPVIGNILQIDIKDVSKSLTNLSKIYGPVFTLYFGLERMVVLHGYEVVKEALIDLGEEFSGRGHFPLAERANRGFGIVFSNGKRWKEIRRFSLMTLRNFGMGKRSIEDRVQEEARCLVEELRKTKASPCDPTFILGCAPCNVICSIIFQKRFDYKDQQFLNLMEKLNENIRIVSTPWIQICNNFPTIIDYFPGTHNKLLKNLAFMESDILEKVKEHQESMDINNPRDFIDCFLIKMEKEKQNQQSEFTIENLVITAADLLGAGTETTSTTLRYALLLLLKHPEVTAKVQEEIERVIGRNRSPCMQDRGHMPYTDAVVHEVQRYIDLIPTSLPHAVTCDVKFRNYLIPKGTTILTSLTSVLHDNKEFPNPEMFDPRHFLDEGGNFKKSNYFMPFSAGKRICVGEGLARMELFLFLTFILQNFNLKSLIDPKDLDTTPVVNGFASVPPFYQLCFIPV
Sequence of Muscarinic acetylcholine receptor M4 (Homo sapiens) (P08173 whole entry): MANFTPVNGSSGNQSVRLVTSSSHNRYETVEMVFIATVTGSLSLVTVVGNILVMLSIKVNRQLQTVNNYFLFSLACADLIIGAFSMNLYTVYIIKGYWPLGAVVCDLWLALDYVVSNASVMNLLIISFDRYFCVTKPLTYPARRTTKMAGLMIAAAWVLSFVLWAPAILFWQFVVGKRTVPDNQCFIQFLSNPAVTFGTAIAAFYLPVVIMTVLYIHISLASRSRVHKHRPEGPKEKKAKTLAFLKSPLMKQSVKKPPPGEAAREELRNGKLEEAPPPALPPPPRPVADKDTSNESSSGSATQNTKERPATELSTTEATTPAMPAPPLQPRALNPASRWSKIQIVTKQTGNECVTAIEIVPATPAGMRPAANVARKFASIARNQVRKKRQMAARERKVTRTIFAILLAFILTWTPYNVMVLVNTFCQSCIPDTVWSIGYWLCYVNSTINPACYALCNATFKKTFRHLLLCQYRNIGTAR

What is called EC50 is the concentration needed to bring the measured effect to its halfway point. Broadly, the IC50 is the concentration needed to halve the response being measured. Higher therefore signals lower potency. One may read the Kp as the ratio of the level in a tissue or fluid to that in plasma or blood. The bioavailability is the share of a dose that reaches the circulation, judged against a reference dose that is usually intravenous. By pKa is commonly meant the pH at which an ionisable group is half protonated. A higher pKa goes with a group that holds its proton tightly. For the molecule `Cn1ccc2c(Nc3cccc(Cl)c3)ncc(C(=O)N3CCOCC3)c21`, the EC50 is 6.3 µM in [1] and 0.005 µM in series [12]. Further, the Activity was under 10% in series [2]; under 10% in series [3]; “Non-toxic” in series [4]; under 10% in [5]; under 10% in series [9]; under 10% in series [13]. The Activity in series [15] is under 10%. Also, the Efficacy in [6] was found to be 100%; in [17] it was 88%. Also, in [7], the Ratio EC50 amounted to 1200. Besides, in series [8], the IC50 was found to be 41 µM. For the same molecule, in series [10], the Kp at 1 h amounted to 1. In addition, in series [11], the Kp at 5 h turned out to be 1. Moreover, the bioavailability in series [14] turned out to be 82%. The pKa in [16] was 6.1.
